Results from patent US20160031909A1, “PORPHYRAZINE OPTICAL AND DUAL OPTICAL/ MR CONTRAST AND THERAPEUTIC AGENTS” (HOFFMAN/BARRETT, LLC, priority 2013, published 2016).
“Also recorded” adds a separate entry of the source.

Tests used:
Water solubility = assay type: physicochemical
Experimental: The pz platform is diol pz 285, which was prepared and activated for nucleophilic substitution by arenesulfonylation to produce bis-tosylate pz 286 as previously described (13). Subsequent nucleophilic substitution of pz 286 with excess sodium azide gave diazide pz 288, which was suitable for conjugation via cycloaddition reactions with the alkyne-functionalized Gd595. (Scheme 1). The use of catalytic copper(II) sulfate in this conjugation reaction partially metallates the pz core. To address this issue, pz 288 either was metallated with ZnCl2 prior to reaction with the alkyne or a stoichiometric amount of the […] catalyst was used to ensure that the pz core was completely cuprated. Standard cycloaddition reaction conditions were subsequently used to conjugate metallated pz diazides with Gd595 to produce Zn-Pz-Gd(III) and Cu-Pz-Gd(III) conjugates, which were isolated by preparative HPLC in 52% and 57% isolated yields, respectively. Trace amounts of Zn-Pz-Gd(III) were transmetallated to Cu-Pz-Gd(III), but this small amount was removed during purification.

[1] = Octanol-water partition coefficients by ICP-MS; assay type: physicochemical; conditions: 1:1 water:1-octanol, 48 hours, Gd by ICP-MS
Experimental: Octanol-water partition coefficients (log P) were measured by ICP-MS to determine the hydrophilicity of the Pz-Gd(III) conjugates (4d, 18). The hydrophilicity of a molecule dictates cellular permeability where a balance in amphiphilicity is desired for ease of aqueous administration and maximum cellular uptake (19). Cu-Pz-Gd(III) is slightly more hydrophobic than Zn-Pz-Gd(III) and both conjugates are more hydrophobic than DOTA-Gd(III).
DOTA-Gd(I I I), Zn-Pz-Gd(III), and Cu-Pz-Gd(III) (0.5 mg) were dissolved in 1 mL of a 1:1 mixture of water:1-octanol, respectively. After shaking for 30 seconds, these tubes were placed on a rotator for gentle mixing to equilibrate for 48 hours. Gd(III) concentration in each layer was determined by ICP-MS. Partition coefficients were calculated from the equation log P=log(Co/Cw), where log P is the logarithm of the partition coefficient, Co is the concentration of Gd in the 1-octanol layer, and Cw is the concentration of Gd in the water layer.

[2] = Ex vivo biodistribution by ICP-MS; assay type: in vivo, athymic nude mice
Experimental: Cu-Pz-Gd(III) was examined as a contrast agent in vivo in an orthotopic breast tumor model in athymic nude mice. MDA-MB-231 breast tumor cells expressing mCherry fluorescent protein were implanted in the mammary fat pad of mice and tumors were allowed to grow to about 5 mm in diameter at which time mice were treated with 450 nmol (50 mg/kg) Cu-Pz-Gd(III) together with saline treated control mice (FIG. 3A).
Images were acquired at baseline, and 4, 24, and 48 hours after injection of 150 μL of imaging agent via the tail vein. One control animal was injected with saline; the remaining 9 animals were injected with 450 nmol Cu-Pz-Gd(III). Three animals were sacrificed after 4 hour, 24 hour, and 48 hour timepoints, respectively; the organs were collected for ICP-MS (described below) to measure biodistribution.
Mice were sacrificed by CO2 inhalation followed by cervical dislocation. Blood, urine (where possible), tumor, liver, kidney, spleen, heart, lungs, and samples of skin and skeletal muscle were collected for elemental analysis by ICP-MS as described below. In one additional mouse that was not treated with an imaging agent, the tumor was collected and fixed in 10% formalin for histological analysis. […]

## Cu[Pz(C19H28N8O7Gd)2]. Pz=18,21-bis(2-(1H-1,2,3-triazole-4-yl) ethoxy)-tris-[1,4-dioxino[g,l,q](2R,3R)-2,3-dimethoxy-2,3-dimethyll 25H,27H-benzo[b]porphyrazine; C19H28N8O7Gd=N-methyl-2-aminoacetamide-4,7,10-tris(carboxymethyl)-1,4,7,10-tetraazacyclododecylgadolinium(III)) [Cu-Pz-Gd(III)]
Water solubility
  water solubility: freely water soluble
[1]
  log P: −2.41
[2]; biodistribution data by ICP-MS
  route of clearance: rapidly cleared, primarily through the kidneys; also recorded: primarily through the kidneys and liver; also recorded: cleared through the kidneys and liver
[2]; ex vivo biodistribution study
  tumor accumulation: accumulates in tumors
